Laboratory results from US10428060B2, “PI-kinase inhibitors with anti-infective activity” (The Board of Trustees of the Leland Stanford Junior …, priority 2011, dated 2019).

Tests used:
PI4KIIIB = molecular target: T1, PI4KIIIB (Bos taurus, UniProt O02810); assay: PI4KIIIB kinase assay; format: biochemical, bovine
T1 construct: made in house; host or cells: COS-7 cells, transient transfection, anti-HA immunoprecipitate on protein G Sepharose beads
Description: In the assays described here, p110α-p85 complex and p110γ were acquired from Millipore. Assays were performed with Lα-phosphatidylinositol (Avanti) as described in Knight et al. Nat Protoc. […] Inhibitor series were prepared 10% DMSO as 5× stocks for the assay. […] COS-7 cells were cultured in 10 cm dishes and transfected at 70% confluence with 10 μg of plasmid DNA (HA-tagged bovine PI4KIIIβ, HA-tagged human PI4KIIIα) using Lipofectamine 2000 and 5 ml Opti-MEM following the manufacturer's instructions. After 5 hours the transfection medium was replaced with 10 ml complete DMEM. 36 hrs post transfection, cells were washed once with 5 ml PBS (pH 7.4) and lysed in 1 ml of lysis buffer (1) on ice. […] To the lysates was added 200 μl of protein G Sepharose 4 fast flow beads that were prewashed with PBS and lysis buffer and 2 μg of anti-HA antibody. The tubes were then incubated overnight at 4 degrees C. in a tube rotator. […] Kinase reactions were run in a mixture of 45 μL of PI buffer (1 mM PI in kinase buffer), 10 μL of immunoprecipitated beads, 2 µL of inhibitors (dissolved and diluted in DMSO) or DMSO and 5 μL of [γ-^32P]-ATP (1 mM and 2 μCi/tube). The immunoprecipitates in PI buffer were pre-incubated with the drugs for 20 min prior the initiation of kinase reaction by adding ATP and the reactions were carried out for 30 min in 15 ml polypropolyne tubes. Reactions were terminated by addition of 3 ml of CHCl3:CH3OH:HCl (200:100:0.75) followed by 0.6 ml of 0.6N HCl to induce phase separation. The mixtures were vortexed, centrifuged at 2000 rpm for 2 min and the upper phase was discarded. To the lower phase was added 1.5 ml of CHCl3:CH3OH:0.6N HCl (3:48:47) and the mixture vortexed and centrifuged at 2000 rpm for 2 min. The lower phase was then transferred to counting vials and evaporated. Samples were counted in a scintillation beta counter after adding 5 ml of Instafluor (Perkin-Elmer).
PI-kinase assay: Compounds are tested in C.1.1. PI kinase assays as described by Shokat et al., “A membrane capture assay for lipid kinase activity.” Nat. Protoc.

HRV = assay: Rhinovirus antiviral assay; format: cell-based; settings: Human rhinovirus sp.
PI3K p110g = molecular target: T2, PI3K p110g (Homo sapiens, UniProt P48736); assay: PI3K p110g kinase assay; format: biochemical
T2 construct: purchased Millipore
T2 sequence (P48736 whole entry): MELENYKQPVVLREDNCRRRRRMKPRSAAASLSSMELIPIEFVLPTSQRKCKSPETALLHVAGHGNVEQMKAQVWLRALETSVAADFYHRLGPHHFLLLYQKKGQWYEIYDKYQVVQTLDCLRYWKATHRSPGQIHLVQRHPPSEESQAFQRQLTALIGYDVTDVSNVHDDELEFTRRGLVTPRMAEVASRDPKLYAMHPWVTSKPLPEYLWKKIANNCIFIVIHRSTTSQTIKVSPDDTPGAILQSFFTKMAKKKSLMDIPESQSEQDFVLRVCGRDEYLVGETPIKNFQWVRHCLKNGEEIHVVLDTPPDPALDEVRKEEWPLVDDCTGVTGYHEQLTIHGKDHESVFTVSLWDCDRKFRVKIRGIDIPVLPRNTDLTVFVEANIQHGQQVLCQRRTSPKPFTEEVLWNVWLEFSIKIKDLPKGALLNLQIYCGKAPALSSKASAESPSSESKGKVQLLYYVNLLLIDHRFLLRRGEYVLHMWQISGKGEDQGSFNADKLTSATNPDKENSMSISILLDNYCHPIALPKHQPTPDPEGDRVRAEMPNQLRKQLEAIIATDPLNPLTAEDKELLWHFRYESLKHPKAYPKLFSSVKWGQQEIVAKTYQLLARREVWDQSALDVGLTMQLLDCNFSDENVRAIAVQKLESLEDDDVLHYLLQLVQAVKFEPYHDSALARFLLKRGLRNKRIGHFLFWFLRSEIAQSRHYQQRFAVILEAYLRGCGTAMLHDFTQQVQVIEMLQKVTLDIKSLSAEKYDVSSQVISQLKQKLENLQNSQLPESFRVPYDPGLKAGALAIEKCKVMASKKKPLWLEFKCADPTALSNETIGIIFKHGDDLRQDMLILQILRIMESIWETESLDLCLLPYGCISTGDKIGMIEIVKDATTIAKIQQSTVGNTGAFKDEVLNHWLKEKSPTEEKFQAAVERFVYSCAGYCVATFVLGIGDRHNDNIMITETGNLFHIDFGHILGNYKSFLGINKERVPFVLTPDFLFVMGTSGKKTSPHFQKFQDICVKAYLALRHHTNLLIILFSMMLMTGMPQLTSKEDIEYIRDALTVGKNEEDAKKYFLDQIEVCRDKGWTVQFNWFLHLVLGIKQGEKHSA
Description: In the assays described here, p110α-p85 complex and p110γ were acquired from Millipore. Assays were performed with Lα-phosphatidylinositol (Avanti) as described in Knight et al. Nat Protoc. 2007; 2 (10):2459-66. Inhibitor series were prepared 10% DMSO as 5× stocks for the assay. Assays of HsVps34 were performed as described in Knight et al, except that the final assay buffer composition used was changed to 20 mM HEPES 7.5, 100 mM NaCl, 3 mM MgCl, 1 mg/mL PI and 44 nM hvps34 was used in the assay. […] COS-7 cells were cultured in 10 cm dishes and transfected at 70% confluence with 10 μg of plasmid DNA (HA-tagged bovine PI4KIIIβ, HA-tagged human PI4KIIIα) using Lipofectamine 2000 and 5 ml Opti-MEM following the manufacturer's instructions. After 5 hours the transfection medium was replaced with 10 ml complete DMEM. 36 hrs post transfection, cells were washed once with 5 ml PBS (pH 7.4) and lysed in 1 ml of lysis buffer (1) on ice. Lysates were collected by scraping and after 15 min they were centrifuged at 13,000 rpm for 10 min. To the lysates was added 200 μl of protein G Sepharose 4 fast flow beads that were prewashed with PBS and lysis buffer and 2 μg of anti-HA antibody. The tubes were then incubated overnight at 4 degrees C. in a tube rotator. The Sepharose beads in the lysate were washed twice with 150 mM NaCl in RIPA buffer, twice with RIPA buffer and once with kinase buffer (50 mM Tris/HCl, pH 7.5, 20 mM MgCl2, 1 mM EGTA, 1 mM PtdIns, 0.4% Triton X-100, 0.5 mg/mL BSA) and finally the beads were resuspended in 200 μL kinase buffer. Kinase reactions were run in a mixture of 45 μL of PI buffer (1 mM PI in kinase buffer), 10 μL of immunoprecipitated beads, 2 µL of inhibitors (dissolved and diluted in DMSO) or DMSO and 5 μL of [γ-^32P]-ATP (1 mM and 2 μCi/tube). The immunoprecipitates in PI buffer were pre-incubated with the drugs for 20 min prior the initiation of kinase reaction by adding ATP and the reactions were carried out for 30 min in 15 ml polypropolyne tubes. Reactions were terminated by addition of 3 ml of CHCl3:CH3OH:HCl (200:100:0.75) followed by 0.6 ml of 0.6N HCl to induce phase separation. The mixtures were vortexed, centrifuged at 2000 rpm for 2 min and the upper phase was discarded. To the lower phase was added 1.5 ml of CHCl3:CH3OH:0.6N HCl (3:48:47) and the mixture vortexed and centrifuged at 2000 rpm for 2 min. The lower phase was then transferred to counting vials and evaporated. Samples were counted in a scintillation beta counter after adding 5 ml of Instafluor (Perkin-Elmer).
PI-kinase assay: Compounds are tested in C.1.1. PI kinase assays as described by Shokat et al., “A membrane capture assay for lipid kinase activity.” Nat. Protoc. 2007; 2(10):2459-66.

HCV genotype 2a = assay: microbe, parasite or virus in culture; format: cell-based; settings: Hepatitis C virus, Huh7.5, read-out: HCV2a EC50

T1 sequence (O02810 whole entry): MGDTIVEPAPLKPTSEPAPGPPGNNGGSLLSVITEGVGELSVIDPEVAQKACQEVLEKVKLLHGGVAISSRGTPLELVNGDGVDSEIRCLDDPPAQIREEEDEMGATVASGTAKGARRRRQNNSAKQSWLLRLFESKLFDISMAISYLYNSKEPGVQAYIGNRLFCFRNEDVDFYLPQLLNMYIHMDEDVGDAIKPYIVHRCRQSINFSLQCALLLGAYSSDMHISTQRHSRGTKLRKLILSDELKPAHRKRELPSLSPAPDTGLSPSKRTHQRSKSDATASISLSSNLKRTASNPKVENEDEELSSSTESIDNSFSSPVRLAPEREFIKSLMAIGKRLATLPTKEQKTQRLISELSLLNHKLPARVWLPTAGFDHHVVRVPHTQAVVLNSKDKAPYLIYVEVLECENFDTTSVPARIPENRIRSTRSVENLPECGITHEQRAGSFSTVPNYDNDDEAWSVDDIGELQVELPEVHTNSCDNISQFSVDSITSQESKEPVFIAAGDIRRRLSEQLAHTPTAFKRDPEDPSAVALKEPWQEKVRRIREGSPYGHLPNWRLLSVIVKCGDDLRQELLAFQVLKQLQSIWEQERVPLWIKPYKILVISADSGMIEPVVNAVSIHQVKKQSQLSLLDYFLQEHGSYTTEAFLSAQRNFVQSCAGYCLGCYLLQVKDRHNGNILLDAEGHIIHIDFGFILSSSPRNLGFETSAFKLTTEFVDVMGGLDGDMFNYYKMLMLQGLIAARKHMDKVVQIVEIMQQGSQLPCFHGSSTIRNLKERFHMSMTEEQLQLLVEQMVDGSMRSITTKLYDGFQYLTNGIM

SMILES | IC50 (PI4KIIIB) [µM] | IC50 (PI3K p110g) [µM] | further results
COc1ccc(-c2sc(NC(C)(C)C)nc2C)cc1S(=O)(=O)NC1CCCNC1 (centres unmarked) [Compound S-220, 5-[2-(tert-butylamino)-4-methyl-thiazol-5-yl]-2-methoxy-N-(3-piperidyl)benzenesulfonamide] | < 0.1 |  | 
COc1ccc(-c2sc(NCC3CCCCC3)nc2C)cc1S(=O)(=O)NC1CCCC(O)C1 (centres unmarked) [Compound S-199, 5-[2-(cyclohexylmethylamino)-4-methyl-thiazol-5-yl]-N-(3-hydroxycyclohexyl)-2-methoxy-benzenesulfonamide] | < 0.1 |  | 
Cc1ccc(-c2sc(NC(=O)CC3CCCC3)nc2C)cc1S(=O)(=O)NC1CCCNC1 (centres unmarked) [Compound S-189, 2-cyclopentyl-N-[4-methyl-5-[4-methyl-3-(3-piperidylsulfamoyl)phenyl]thiazol-2-yl]acetamide] | < 0.1 |  | 
COc1ccc(NS(=O)(=O)c2cc(-c3sc(NC4CCCCCC4)nc3C)ccc2OC)c(C)c1 [Compound S-89, 5-[2-(cycloheptylamino)-4-methyl-thiazol-5-yl]-2-methoxy-N-(4-methoxy-2-methyl-phenyl)benzenesulfonamide; 2,2,2-trifluoroactic acid] |  |  | EC50 (HRV): < 0.001 µM
COc1ccc(-c2sc(NC(=O)CC3CCCC3)nc2C)cc1S(=O)(=O)NC1CCCNC1 (centres unmarked) [Compound S-173, 2-cyclopentyl-N-[5-[4-methoxy-3-(3-piperidylsulfamoyl)phenyl]-4-methyl-thiazol-2-yl]acetamide; 2,2,2-trifluoroacetic acid] | < 0.1 |  | 
COc1ccc(-c2sc(NC(=O)CC3CCCC3)nc2C)cc1S(=O)(=O)Nc1ccc(C)nc1 [Compound S-100, 2-cyclopentyl-N-[5-[4-methoxy-3-[(6-methyl-3-pyridyl)sulfamoyl]phenyl]-4-methyl-thiazol-2-yl]acetamide; 2,2,2-trifluoroacetic acid] |  | > 10 | 
COc1ccc(NS(=O)(=O)c2cc(-c3sc(NC4CCCCC4)nc3C)ccc2OC)c(C)c1 [Compound S-66, 5-[2-(cyclohexylamino)-4-methyl-thiazol-5-yl]-2-methoxy-N-(4-methoxy-2-methyl-phenyl)benzenesulfonamide; 2,2,2-trifluoroacetic acid] |  |  | EC50 (HCV genotype 2a): 1 to 10 µM; EC50 (HRV): < 0.001 µM
COc1ncc(-c2sc(NC(=O)CC3CCOCC3)nc2C)cc1S(=O)(=O)Nc1ccc(O)cc1 [Compound S-261] |  | 0.1 to 1 | EC50 (HCV genotype 2a): 0.001 to 0.1 µM; EC50 (HRV): 1 to 10 µM
COc1ccc(-c2sc(NC3CCCCC3)nc2C)cc1S(=O)(=O)NC1CCCC1 [Compound S-129, 5-[2-(cyclohexylamino)-4-methyl-thiazol-5-yl]-N-cyclopentyl-2-methoxy-benzenesulfonamide] |  | > 10 | 
COc1ccc(-c2sc(NC(=O)CCC3CCCC3)nc2C)cc1S(=O)(=O)NC1CCC(O)CC1 (centres unmarked) [Compound S-156, 3-cyclopentyl-N-[5-[3-[(4-hydroxycyclohexyl)sulfamoyl]-4-methoxy-phenyl]-4-methyl-thiazol-2-yl]propanamide] | < 0.1 |  | 
COc1ccc(-c2sc(NCC3CCCCC3)nc2C)cc1S(=O)(=O)NC1CC1 [Compound S-127, 5-[2-(cyclohexylmethylamino)-4-methyl-thiazol-5-yl]-N-cyclopropyl-2-methoxy-benzenesulfonamide] |  | > 10 | 
COc1ccc(-c2sc(NC3CCCCC3)nc2C)cc1S(=O)(=O)Nc1ccc(O)cc1C [Compound S-106, 5-[2-(cyclohexylamino)-4-methyl-thiazol-5-yl]-N-(4-hydroxy-2-methyl-phenyl)-2-methoxy-benzenesulfonamide] |  |  | EC50 (HRV): < 0.001 µM
COc1ccc(-c2sc(NC(=O)CC3CCOCC3)nc2C)cc1S(=O)(=O)Nc1cc(C)cc(O)c1 [Compound S-169, N-[5-[3-[(3-hydroxy-5-methyl-phenyl)sulfamoyl]-4-methoxy-phenyl]-4-methyl-thiazol-2-yl]-2-tetrahydropyran-4-yl-acetamide] |  | > 10 | 
COc1ccc(-c2sc(NCC3CCCCC3)nc2C)cc1S(=O)(=O)NCC1CCCCC1 [Compound S-128, N-(cyclohexylmethyl)-5-[2-(cyclohexylmethylamino)-4-methyl-thiazol-5-yl]-2-methoxy-benzenesulfonamide] |  | > 10 | 
COc1ncc(-c2sc(NC(=O)CC3CCOCC3)nc2C)cc1S(=O)(=O)N[C@H]1CC[C@@H](O)CC1 [Compound S-262] |  | 1 to 10 | 
COc1ncc(-c2sc(NC(=O)CC3CCOCC3)nc2C)cc1S(=O)(=O)Nc1cccc(O)c1 [Compound S-259] |  | 1 to 10 | 
COc1ccc(NS(=O)(=O)c2cc(-c3sc(NC(=O)CC4CCCCC4)nc3C)ccc2OC)c(C)c1 [Compound S-85, 2-cyclohexyl-N-[5-[4-methoxy-3-[(4-methoxy-2-methyl-phenyl)sulfamoyl]phenyl]-4-methyl-thiazol-2-yl]acetamide] |  |  | EC50 (HRV): < 0.001 µM
COc1ccc(-c2sc(N[C@H](C)C3CCCCC3)nc2C)cc1S(=O)(=O)NC1CCNCC1 [Compound S-147, 5-[2-[[(1R)-1-cyclohexylethyl]amino]-4-methyl-thiazol-5-yl]-2-methoxy-N-(4-piperidyl)benzenesulfonamide] |  | > 10 | 
COc1ncc(-c2sc(NC(=O)CC3CCOCC3)nc2C)cc1S(=O)(=O)Nc1cccc(C(=O)O)c1 [Compound S-265] |  | > 10 | 
COc1ccc(-c2sc(NC(C)(C)C)nc2C)cc1S(=O)(=O)NC1CCCC(O)C1 (centres unmarked) [Compound S-218, 5-[2-(tert-butylamino)-4-methyl-thiazol-5-yl]-N-(3-hydroxycyclohexyl)-2-methoxy-benzenesulfonamide] | < 0.1 |  | 
COc1ccc(-c2sc(NC(=O)CC3CCOCC3)nc2C)cc1S(=O)(=O)Nc1ccc(F)cc1 [Compound S-170, N-[5-[3-[(4-fluorophenyl)sulfamoyl]-4-methoxy-phenyl]-4-methyl-thiazol-2-yl]-2-tetrahydropyran-4-yl-acetamide] |  | > 10 | 
COc1ccc(-c2sc(N[C@H](C)CC3CCCCC3)nc2C)cc1S(=O)(=O)NC1CCNCC1 [Compound S-145, 5-[2-[[(1R)-2-cyclohexyl-1-methyl-ethyl]amino]-4-methyl-thiazol-5-yl]-2-methoxy-N-(4-piperidyl)benzenesulfonamide] |  | > 10 | 
COc1ccc(-c2sc(NCC(C)C)nc2C)cc1S(=O)(=O)NC1CCCC(O)C1 (centres unmarked) [Compound S-223, N-(3-hydroxycyclohexyl)-5-[2-(isobutylamino)-4-methyl-thiazol-5-yl]-2-methoxy-benzenesulfonamide; 2,2,2-trifluoroacetic acid] | < 0.1 |  | 
